From patent publication US20130267680A1, “TOTAL CHEMICAL SYNTHESIS OF UBIQUITIN, UBIQUITIN MUTANTS AND DERIVATIVES THEREOF” (Stichting Het Nederlands kankerinstituut, priority 2010, published 2013) come the findings set out here.

Assay [1] has as its system HAUSP/USP7. The experiment in a line: Binding of HAUSP/USP7 to ubiquitin-VME. Particulars: Ub-VME 2 μM, USP7 1 μM, 60 min at 30° C. As for the experimental part: Both Ub derivatives are routinely used to measure activity of deubiquitinating enzymes (DUBs). […] The structural integrity of synthetic UbAMC and UBRh110Gly, both prepared in accordance with the method of the present invention, was tested using the following assays.
Binding of HAUSP/USP7 to ubiquitin-VME Assay buffer: 20 mM HEPES pH7.5 • 150 mM NaCl • 2 μM ZnCl2 • 10 mM MgCl2 • 2 mM DTT
Reaction mixtures were incubated for 60 min at 30° C.
Load 10 μL on gel (complete sample)
Target sequence in this assay (Q93009 206-1102): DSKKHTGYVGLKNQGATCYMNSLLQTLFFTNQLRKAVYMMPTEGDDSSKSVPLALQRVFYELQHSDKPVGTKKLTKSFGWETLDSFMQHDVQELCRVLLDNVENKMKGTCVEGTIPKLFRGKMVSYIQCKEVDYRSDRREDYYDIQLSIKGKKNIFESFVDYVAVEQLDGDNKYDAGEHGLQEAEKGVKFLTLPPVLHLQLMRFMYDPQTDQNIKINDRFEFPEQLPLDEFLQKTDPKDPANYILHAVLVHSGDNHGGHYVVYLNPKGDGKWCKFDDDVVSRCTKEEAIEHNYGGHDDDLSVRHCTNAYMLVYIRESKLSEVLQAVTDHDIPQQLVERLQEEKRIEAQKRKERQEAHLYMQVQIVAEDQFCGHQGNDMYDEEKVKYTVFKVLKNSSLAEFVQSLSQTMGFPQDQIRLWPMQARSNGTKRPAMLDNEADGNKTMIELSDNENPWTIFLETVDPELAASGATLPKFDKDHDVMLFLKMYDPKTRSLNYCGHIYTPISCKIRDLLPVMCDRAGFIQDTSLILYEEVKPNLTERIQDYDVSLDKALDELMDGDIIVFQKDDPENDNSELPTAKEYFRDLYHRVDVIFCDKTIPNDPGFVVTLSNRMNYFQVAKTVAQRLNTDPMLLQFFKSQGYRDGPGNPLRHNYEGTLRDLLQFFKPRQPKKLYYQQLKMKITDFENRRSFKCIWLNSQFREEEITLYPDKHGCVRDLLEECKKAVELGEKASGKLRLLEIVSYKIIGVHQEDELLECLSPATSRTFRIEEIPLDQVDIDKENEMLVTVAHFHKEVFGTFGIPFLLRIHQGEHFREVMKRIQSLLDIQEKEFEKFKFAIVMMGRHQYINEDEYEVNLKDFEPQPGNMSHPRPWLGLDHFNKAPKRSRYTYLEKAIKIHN

For assay [2], the system named is HAUSP/USP7. Description: Ub-AMC/Ub-Rh110-Gly DUB assay with HAUSP/USP7. The class given is biochemical. Particulars: 1 nM enzyme. As for the experimental part: (§1) FIG. 5: Hydrolysis of fluorogenic Ub derivatives by the deubiquitinating enzymes HAUSP/USP7 and UCH-L3. All assays contained 1 nM of enzyme, substrate concentration was varied.
Assay 1: Commercial and synthetic Ub-AMC, prepared according to the present method are treated side by side with HAUSP/USP7 and compared.
(§2) Assay 3: Ub-Rh110-Gly was treated with HAUSP/USP7 and UCH-L3.
Usp7(206-1102) was expressed in E. coli from a synthetic construct and purified as described: (a) Shanmugham et al. J. Am. Chem. Soc. 2010, 132, 8834-8835; (b) Fernandez-Montalvan et al. Febs J. 2007, 274, […].
(§3) assay buffer: 50 mM HEPES pH 7.5 • 100 mM NaCl • 1 mM EDTA • 0.05% Tween20 • 10 mM DTT • Reaction mixtures were incubated for 30 min at 25° C., measured every 5 minutes • 30 μL reactions • Proteins used: Ub-AMC (Commercial) • Ub-AMC (Synthetic) • Ub-Rh110-Gly (Synthetic) • USP7 full length • UCH-L3 All assays contained 1 nM DUB and the following concentrations of Ub:
DUB activity on commercial (Sigma) and synthetic ubiquitin with a C-terminal fluorescent group, 7-amino-4-methylcoumarin (Ub-AMC) were performed at 25° C. in buffer containing 50 mM Hepes pH 7.5, 100 mM NaCl, 1 mM EDTA, 0.05% (w/v) Tween20, 10 mM DTT. The concentrations Ubiquitin-AMC and DUB are specified in the figures. Assays were performed in “Non binding surface flat bottom low flange” black 384-well plates (Corning) in 30 μl reactions. Kinetic data was collected in intervals of 5 min using a Fluostar Optima fluorescence plate reader (BMG Labtechnologies) at excitation and emission wavelengths of 355 nm and 460 nm, respectively for Ub-AMC. Experimental data was processed using Prism 4.03 (GraphPad Software, Inc.).
Target sequence in this assay (Q93009 whole entry): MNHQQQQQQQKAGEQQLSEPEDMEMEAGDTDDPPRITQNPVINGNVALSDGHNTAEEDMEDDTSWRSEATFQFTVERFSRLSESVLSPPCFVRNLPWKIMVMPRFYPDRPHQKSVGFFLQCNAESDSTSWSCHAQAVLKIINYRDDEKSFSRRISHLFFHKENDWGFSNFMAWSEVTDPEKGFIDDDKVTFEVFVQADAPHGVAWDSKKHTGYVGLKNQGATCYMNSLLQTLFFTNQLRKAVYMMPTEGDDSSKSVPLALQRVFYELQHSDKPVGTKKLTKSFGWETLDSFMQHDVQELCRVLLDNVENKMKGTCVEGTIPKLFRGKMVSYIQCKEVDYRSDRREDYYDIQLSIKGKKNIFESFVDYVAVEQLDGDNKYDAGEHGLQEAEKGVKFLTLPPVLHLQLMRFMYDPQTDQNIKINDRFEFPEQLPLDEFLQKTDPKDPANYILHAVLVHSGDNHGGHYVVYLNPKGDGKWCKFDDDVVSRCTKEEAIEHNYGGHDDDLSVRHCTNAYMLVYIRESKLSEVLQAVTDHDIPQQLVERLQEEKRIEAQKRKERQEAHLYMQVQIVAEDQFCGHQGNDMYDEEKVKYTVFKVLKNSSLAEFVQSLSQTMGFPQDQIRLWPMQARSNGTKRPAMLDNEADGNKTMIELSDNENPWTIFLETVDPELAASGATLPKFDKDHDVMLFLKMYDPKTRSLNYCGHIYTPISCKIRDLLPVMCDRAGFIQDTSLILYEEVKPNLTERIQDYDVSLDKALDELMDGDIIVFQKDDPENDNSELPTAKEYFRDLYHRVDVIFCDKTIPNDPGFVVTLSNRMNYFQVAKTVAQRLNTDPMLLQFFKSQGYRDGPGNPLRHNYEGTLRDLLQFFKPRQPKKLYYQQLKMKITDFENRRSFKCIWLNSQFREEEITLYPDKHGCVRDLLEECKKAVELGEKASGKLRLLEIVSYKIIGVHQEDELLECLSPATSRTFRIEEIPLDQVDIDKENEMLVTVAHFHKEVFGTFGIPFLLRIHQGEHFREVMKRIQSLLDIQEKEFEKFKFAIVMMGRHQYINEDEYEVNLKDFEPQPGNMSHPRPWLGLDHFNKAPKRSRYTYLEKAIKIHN

In another assay the target is T1, UCH-L3 (Homo sapiens, UniProt P15374).
T1 construct: made in house; host or cells: Escherichia coli
T1 sequence (P15374 1-230): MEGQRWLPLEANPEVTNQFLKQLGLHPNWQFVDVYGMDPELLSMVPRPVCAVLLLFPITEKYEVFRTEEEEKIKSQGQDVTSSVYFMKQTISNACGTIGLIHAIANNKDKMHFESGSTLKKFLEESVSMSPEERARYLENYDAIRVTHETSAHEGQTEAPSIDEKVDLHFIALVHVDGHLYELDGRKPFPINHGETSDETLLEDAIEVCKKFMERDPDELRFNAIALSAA
The experiment in a line: Ub-AMC/Ub-Rh110-Gly DUB assay with UCH-L3. The class given is biochemical. The settings on record: 1 nM enzyme, substrate 0.06-15 μM, 25° C., 30 min. On the procedure: as §1
Assay 2. Synthetic Ub-AMC was treated with UCH-L3.
as §2
UCH-L3 in pRSET vector was obtained from Dr. Keith Wilkinson. UCH-L3 was expressed in Escherichia coli and purified as described in: C. N. Larsen, J. S. Price, K. D. Wilkinson, K. D. Biochemistry 1996, 35, 6735-6744.
as §3
DUB activity on commercial (Sigma) and synthetic ubiquitin with a C-terminal fluorescent group, 7-amino-4-methylcoumarin (Ub-AMC) were performed at 25° C. in buffer containing 50 mM Hepes pH 7.5, 100 mM NaCl, 1 mM EDTA, 0.05% (w/v) Tween20, 10 mM DTT. The concentrations Ubiquitin-AMC and DUB are specified in the figures. […] Kinetic data was collected in intervals of 5 min using a Fluostar Optima fluorescence plate reader (BMG Labtechnologies) at excitation and emission wavelengths of 355 nm and 460 nm, respectively for Ub-AMC. […]

Take “UbVME: active site directed probe Ub vinylmethyl ester which covalently modifies DUBs”: the “reaction of active-site targeted probe with HAUSP/USP7” value in the assay with HAUSP/USP7 [1] is “reacted swiftly as expected”.

Turning to “synthetic UbAMC: synthetic ubiquitin with a C-terminal fluorescent group, 7-amino-4-methylcoumarin; fluorogenic assay reagent”, the “hydrolysis / turnover by HAUSP/USP7 (recognition as substrate)” value in the assay on HAUSP/USP7 [2] (substrate 0.06-15 μM, 25° C., 30 min) is listed as “efficient turnover”. In addition, the “Michaelis-Menten kinetics comparison with USP7” value with HAUSP/USP7 [2] (substrate concentration varied, commercial versus synthetic UbAMC (FIG. 5C)) is on record as “identical kinetics”. The “Km values with HAUSP/USP7” value in the assay on HAUSP/USP7 [2] (substrate concentration varied, synthetic versus commercial UbAMC) is “comparable Km values”. The “hydrolysis / turnover by UCH-L3 (recognition as substrate)” value was “efficient turnover” in the assay with UCH-L3; “hydrolyzed and thus recognized as a substrate” with UCH-L3 (listed as synthetic Ub-AMC).
